Data: ChEMBL document CHEMBL5104090, “Recent advances in the medicinal chemistry of carbonic anhydrase inhibitors” (Eur J Med Chem, 2021)

Experiments:
Carbonic anhydrase 9 [1] = target: T1, Carbonic anhydrase 9 (Homo sapiens, UniProt Q16790)
Carbonic anhydrase 12 [2] = target: T2, Carbonic anhydrase 12 (Homo sapiens, UniProt O43570)
Carbonic anhydrase 1 [3] = target: T3, Carbonic anhydrase 1 (Homo sapiens, UniProt P00915)
Carbonic anhydrase 2 [4] = target: T4, Carbonic anhydrase 2 (Homo sapiens, UniProt P00918)
Carbonic anhydrase 9 [5] = target: T1, Carbonic anhydrase 9; remark: listed apart in the source
Carbonic anhydrase 12 [6] = target: T2, Carbonic anhydrase 12; remark: listed apart in the source
Carbonic anhydrase 1 [7] = target: T3, Carbonic anhydrase 1; remark: listed apart in the source
Carbonic anhydrase 2 [8] = target: T4, Carbonic anhydrase 2; remark: listed apart in the source
Carbonic anhydrase 1 [9] = target: T3, Carbonic anhydrase 1; remark: listed apart in the source
Carbonic anhydrase 2 [10] = target: T4, Carbonic anhydrase 2; remark: listed apart in the source
Carbonic anhydrase 4 [11] = target: T5, Carbonic anhydrase 4 (Homo sapiens, UniProt P22748)
T5 sequence (P22748 whole entry): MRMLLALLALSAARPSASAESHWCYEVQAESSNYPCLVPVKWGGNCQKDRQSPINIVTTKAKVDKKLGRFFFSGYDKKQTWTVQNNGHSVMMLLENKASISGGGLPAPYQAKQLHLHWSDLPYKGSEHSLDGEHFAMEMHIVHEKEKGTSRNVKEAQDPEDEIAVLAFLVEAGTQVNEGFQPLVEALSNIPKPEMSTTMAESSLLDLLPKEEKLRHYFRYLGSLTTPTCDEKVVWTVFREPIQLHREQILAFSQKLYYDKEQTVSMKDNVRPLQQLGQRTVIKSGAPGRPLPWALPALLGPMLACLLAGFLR

Carbonic anhydrase 9 [12] = target: T1, Carbonic anhydrase 9; remark: listed apart in the source
Carbonic anhydrase 9 [13] = target: T1, Carbonic anhydrase 9; remark: listed apart in the source
Carbonic anhydrase 7 = Carbonic anhydrase 7 (Homo sapiens, UniProt P43166)
Chain of Carbonic anhydrase 7 (P43166 whole entry): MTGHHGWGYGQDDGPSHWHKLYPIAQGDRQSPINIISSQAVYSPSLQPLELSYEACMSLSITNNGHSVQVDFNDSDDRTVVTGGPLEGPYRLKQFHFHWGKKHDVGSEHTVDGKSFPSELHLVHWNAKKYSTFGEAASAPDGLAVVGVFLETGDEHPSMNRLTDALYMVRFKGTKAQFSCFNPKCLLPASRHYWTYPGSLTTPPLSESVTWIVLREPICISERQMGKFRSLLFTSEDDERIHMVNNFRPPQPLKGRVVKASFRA

Carbonic anhydrase 4 [14] = target: T5, Carbonic anhydrase 4; remark: listed apart in the source

T3 sequence (P00915 whole entry): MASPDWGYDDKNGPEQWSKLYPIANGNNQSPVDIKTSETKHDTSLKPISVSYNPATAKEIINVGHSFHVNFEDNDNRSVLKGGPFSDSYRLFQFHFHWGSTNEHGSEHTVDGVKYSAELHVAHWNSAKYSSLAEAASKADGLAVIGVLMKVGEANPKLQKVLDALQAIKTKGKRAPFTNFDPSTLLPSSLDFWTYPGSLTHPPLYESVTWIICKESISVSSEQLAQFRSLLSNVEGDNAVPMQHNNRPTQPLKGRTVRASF
T2 sequence (O43570 whole entry): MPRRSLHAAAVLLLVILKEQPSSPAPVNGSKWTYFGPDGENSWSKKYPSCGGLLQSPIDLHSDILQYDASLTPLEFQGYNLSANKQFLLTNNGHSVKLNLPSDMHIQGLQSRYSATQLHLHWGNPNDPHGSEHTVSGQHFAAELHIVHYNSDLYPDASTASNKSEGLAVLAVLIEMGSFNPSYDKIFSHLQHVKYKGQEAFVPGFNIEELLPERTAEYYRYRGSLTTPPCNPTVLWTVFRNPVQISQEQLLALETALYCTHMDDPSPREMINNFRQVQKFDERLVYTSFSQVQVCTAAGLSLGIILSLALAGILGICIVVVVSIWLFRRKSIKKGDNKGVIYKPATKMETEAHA

Compound: NS(=O)(=O)c1ccc(C(=O)N/N=C/c2ccccc2O)cc1
- Ki (Carbonic anhydrase 9 [1]): 8.5 nM
- Ki (Carbonic anhydrase 12 [2]): 8.6 nM

Compound: Cn1c(-c2ccccc2)nc2cc(B(O)O)ccc21
- IC50 (Carbonic anhydrase 1 [3]): > 360 nM
- IC50 (Carbonic anhydrase 2 [4]): > 360 nM
- IC50 (Carbonic anhydrase 9 [5]): > 360 nM
- IC50 (Carbonic anhydrase 12 [6]): > 360 nM

Compound: Cc1ncc([N+](=O)[O-])n1CCS(N)(=O)=O
- IC50 (Carbonic anhydrase 9 [5]): 643 nM

Compound: Cn1c(-c2ccc(Cl)cc2)nc2cc(B(O)O)ccc21
- IC50 (Carbonic anhydrase 1 [3]): > 360 nM
- IC50 (Carbonic anhydrase 2 [4]): > 360 nM
- IC50 (Carbonic anhydrase 9 [5]): > 360 nM
- IC50 (Carbonic anhydrase 12 [6]): > 360 nM

Compound: NS(=O)(=O)c1ccc(N2N=C(c3cccs3)CC2c2ccccc2)cc1 (centres undefined)
- Ki (Carbonic anhydrase 1 [7]): 24.2 nM
- Ki (Carbonic anhydrase 2 [8]): 80.6 nM

Compound: COC(=O)c1ccc2c(c1)C(=O)N(c1ccc(C(=O)O)cc1)C2=O
- Ki (Carbonic anhydrase 1 [9]): > 10000 nM
- Ki (Carbonic anhydrase 2 [10]): > 10000 nM
- Ki (Carbonic anhydrase 4 [11]): > 10000 nM
- Ki (Carbonic anhydrase 9 [12]): > 10000 nM

Compound: N#CCSc1nc2ccccc2c(=O)n1CCc1ccc(S(N)(=O)=O)cc1
- Ki (Carbonic anhydrase 9 [1]): 57.8 nM
- Ki (Carbonic anhydrase 12 [2]): 57.8 nM

Compound: COC(=O)c1ccc2c(c1)C(=O)N(c1ccc(S(N)(=O)=O)cc1)C2=O
- Ki (Carbonic anhydrase 1 [9]): 54.1 nM
- Ki (Carbonic anhydrase 2 [10]): 25.9 nM
- Ki (Carbonic anhydrase 4 [11]): 317 nM
- Ki (Carbonic anhydrase 9 [12]): 46 nM

Compound: NS(=O)(=O)c1ccc(N2N=C(c3cccs3)CC2c2ccc(F)cc2)cc1 (centres undefined)
- Ki (Carbonic anhydrase 1 [7]): 24.2 nM
- Ki (Carbonic anhydrase 2 [8]): 37.3 nM

Compound: COC(=O)c1ccc2c(c1)C(=O)N(Cc1ccc(S(N)(=O)=O)cc1)C2=O
- Ki (Carbonic anhydrase 1 [9]): 54.1 nM
- Ki (Carbonic anhydrase 2 [10]): 25.9 nM
- Ki (Carbonic anhydrase 4 [11]): 317 nM
- Ki (Carbonic anhydrase 9 [12]): 54.1 nM

Compound: NS(=O)(=O)c1ccc(N2N=C(c3cccs3)CC2c2cccs2)cc1 (centres undefined)
- Ki (Carbonic anhydrase 1 [7]): 24.2 nM
- Ki (Carbonic anhydrase 2 [8]): 37.3 nM

Compound: NS(=O)(=O)c1ccc(N2C(=O)c3ccc(C(=O)O)cc3C2=O)cc1
- Ki (Carbonic anhydrase 1 [9]): 54.1 nM
- Ki (Carbonic anhydrase 2 [10]): 25.9 nM
- Ki (Carbonic anhydrase 4 [11]): 317 nM
- Ki (Carbonic anhydrase 9 [12]): 54.1 nM

Compound: Cn1c(-c2ccccc2)nc2cc(C(=O)O)ccc21
- IC50 (Carbonic anhydrase 1 [3]): > 360 nM
- IC50 (Carbonic anhydrase 2 [4]): > 360 nM
- IC50 (Carbonic anhydrase 9 [5]): > 360 nM
- IC50 (Carbonic anhydrase 12 [6]): > 360 nM

Compound: O=C(O)c1ccc(N2C(=O)c3ccc(C(=O)O)cc3C2=O)cc1
- Ki (Carbonic anhydrase 1 [9]): > 10000 nM
- Ki (Carbonic anhydrase 2 [10]): > 10000 nM
- Ki (Carbonic anhydrase 4 [11]): > 10000 nM
- Ki (Carbonic anhydrase 9 [12]): > 10000 nM

Compound: NS(=O)(=O)c1ccc(CCn2c(SCc3ccccc3)nc3ccccc3c2=O)cc1
- Ki (Carbonic anhydrase 9 [1]): 19.3 nM
- Ki (Carbonic anhydrase 12 [2]): 17.2 nM

Compound: Cc1ccc(C2CC(c3cccs3)=NN2c2ccc(S(N)(=O)=O)cc2)cc1 (centres undefined)
- Ki (Carbonic anhydrase 1 [7]): 24.2 nM
- Ki (Carbonic anhydrase 2 [8]): 37.3 nM

Compound: Cn1c(-c2ccc(Cl)cc2)nc2cc(S(N)(=O)=O)ccc21
- IC50 (Carbonic anhydrase 1 [3]): > 360 nM
- IC50 (Carbonic anhydrase 2 [4]): > 360 nM
- IC50 (Carbonic anhydrase 9 [5]): > 360 nM
- IC50 (Carbonic anhydrase 12 [6]): > 360 nM

Compound: Cn1c(-c2ccccc2)nc2cc(C(=O)NO)ccc21
- IC50 (Carbonic anhydrase 1 [3]): > 360 nM
- IC50 (Carbonic anhydrase 2 [4]): > 360 nM
- IC50 (Carbonic anhydrase 9 [5]): > 360 nM
- IC50 (Carbonic anhydrase 12 [6]): > 360 nM

Compound: NS(=O)(=O)c1ccc(C(=O)NN2C(=O)c3ccccc3C2=O)cc1
- Kis (Carbonic anhydrase 9 [13]): 3 nM

Compound: CSc1nc2ccccc2c(=O)n1CCc1ccc(S(N)(=O)=O)cc1
- Ki (Carbonic anhydrase 9 [1]): 57.8 nM
- Ki (Carbonic anhydrase 12 [2]): 57.8 nM

Compound: Cc1ccc([SeH])cc1
- Ki (Carbonic anhydrase 9 [1]): 180 nM
- Ki (Carbonic anhydrase 7): 760 nM

Compound: O=C1c2ccccc2C(=O)N1CCCSc1nc2ccccc2c(=O)n1CCc1ccccc1
- Ki (Carbonic anhydrase 9 [1]): 19.3 nM
- Ki (Carbonic anhydrase 12 [2]): 17.2 nM

Compound: COC(=O)c1ccc2c(c1)C(=O)N(Cc1ccccc1)C2=O
- Ki (Carbonic anhydrase 1 [9]): > 10000 nM
- Ki (Carbonic anhydrase 2 [10]): > 10000 nM
- Ki (Carbonic anhydrase 4 [11]): > 10000 nM
- Ki (Carbonic anhydrase 9 [12]): > 10000 nM

Compound: NS(=O)(=O)c1ccc(CCN2C(=O)c3ccc(C(=O)O)cc3C2=O)cc1
- Ki (Carbonic anhydrase 1 [9]): 54.1 nM
- Ki (Carbonic anhydrase 2 [10]): 25.9 nM
- Ki (Carbonic anhydrase 4 [11]): 317 nM
- Ki (Carbonic anhydrase 9 [12]): 54.1 nM

Compound: Cn1c(-c2ccccc2)nc2cc(S(N)(=O)=O)ccc21
- IC50 (Carbonic anhydrase 1 [3]): > 360 nM
- IC50 (Carbonic anhydrase 2 [4]): > 360 nM
- IC50 (Carbonic anhydrase 9 [5]): > 360 nM
- IC50 (Carbonic anhydrase 12 [6]): > 360 nM

Compound: COC(=O)c1ccc2c(c1)C(=O)N(CCc1ccccc1)C2=O
- Ki (Carbonic anhydrase 1 [9]): > 10000 nM
- Ki (Carbonic anhydrase 2 [10]): > 10000 nM
- Ki (Carbonic anhydrase 4 [11]): > 10000 nM
- Ki (Carbonic anhydrase 9 [12]): > 10000 nM

Compound: COc1ccc(C(=O)/C=C/Nc2ccc(S(N)(=O)=O)cc2)cc1
- Ki (Carbonic anhydrase 9 [1]): 0.21 nM
- Ki (Carbonic anhydrase 4 [14]): 6.5 nM

Compound: COc1cccc([SeH])c1
- Ki (Carbonic anhydrase 9 [1]): 280 nM
- Ki (Carbonic anhydrase 7): 760 nM

Compound: COc1ccc([SeH])cc1
- Ki (Carbonic anhydrase 9 [1]): 180 nM
- Ki (Carbonic anhydrase 7): 760 nM

Compound: NS(=O)(=O)c1cccc(N/C=C/C(=O)c2ccc([N+](=O)[O-])cc2)c1
- Ki (Carbonic anhydrase 4 [14]): 6.5 nM

Compound: COc1ccc(C2CC(c3cccs3)=NN2c2ccc(S(N)(=O)=O)cc2)c(OC)c1 (centres undefined)
- Ki (Carbonic anhydrase 1 [7]): 24.2 nM
- Ki (Carbonic anhydrase 2 [8]): 37.3 nM

Compound: O=C(O)c1ccc2c(c1)C(=O)N(CCc1ccccc1)C2=O
- Ki (Carbonic anhydrase 1 [9]): > 10000 nM
- Ki (Carbonic anhydrase 2 [10]): > 10000 nM
- Ki (Carbonic anhydrase 4 [11]): > 10000 nM
- Ki (Carbonic anhydrase 9 [12]): > 10000 nM

Compound: Cn1c(-c2ccc(Cl)cc2)nc2cc(C(=O)NO)ccc21
- IC50 (Carbonic anhydrase 1 [3]): > 360 nM
- IC50 (Carbonic anhydrase 2 [4]): > 360 nM
- IC50 (Carbonic anhydrase 9 [5]): > 360 nM
- IC50 (Carbonic anhydrase 12 [6]): > 360 nM

Compound: NS(=O)(=O)c1ccc(CCn2c(SCc3ccc(Br)cc3)nc3ccccc3c2=O)cc1
- Ki (Carbonic anhydrase 9 [1]): 19.3 nM
- Ki (Carbonic anhydrase 12 [2]): 17.2 nM

Compound: Cc1cccc(C)c1[SeH]
- Ki (Carbonic anhydrase 7): 760 nM

Compound: O=C(O)c1ccc2c(c1)C(=O)N(c1ccccc1)C2=O
- Ki (Carbonic anhydrase 1 [9]): > 10000 nM
- Ki (Carbonic anhydrase 2 [10]): > 10000 nM
- Ki (Carbonic anhydrase 4 [11]): > 10000 nM
- Ki (Carbonic anhydrase 9 [12]): > 10000 nM

Compound: NS(=O)(=O)c1ccc(C(=O)N/N=C/c2cccc(O)c2)cc1
- Ki (Carbonic anhydrase 9 [1]): 8.5 nM
- Ki (Carbonic anhydrase 12 [2]): 8.6 nM
